How the values were obtained:
Cap8C = Cap8C (Staphylococcus aureus, UniProt P72369); test: p-nitrophenol release, absorbance […] nm; format: biochemical; conditions: 5 mM pNPP, 0.25 µM enzyme, 1.0 mM Co2+ (also Ni2+ or Mn2+), 92 mM Tris-HCl pH 7.5, 75 °C, 15 min
Wzb = biological target: T1, Wzb (Lacticaseibacillus rhamnosus, UniProt Q58Z13); test: p-nitrophenol release, absorbance […] nm; format: biochemical; conditions: 5 mM pNPP, 0.25 µM enzyme, 1.0 mM Co2+ (also Ni2+ or Mn2+), 92 mM Tris-HCl pH 7.5, 75 °C, 15 min
T1 sequence (Q58Z13 1-254): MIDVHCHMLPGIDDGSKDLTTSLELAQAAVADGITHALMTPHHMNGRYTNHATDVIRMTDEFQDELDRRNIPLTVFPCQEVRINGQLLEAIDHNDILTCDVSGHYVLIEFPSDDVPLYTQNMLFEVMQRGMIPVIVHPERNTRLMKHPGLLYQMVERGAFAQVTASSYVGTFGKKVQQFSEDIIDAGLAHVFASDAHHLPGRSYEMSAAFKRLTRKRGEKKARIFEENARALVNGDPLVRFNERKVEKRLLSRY

Sequence of Cap8C (P72369 entry or part of it): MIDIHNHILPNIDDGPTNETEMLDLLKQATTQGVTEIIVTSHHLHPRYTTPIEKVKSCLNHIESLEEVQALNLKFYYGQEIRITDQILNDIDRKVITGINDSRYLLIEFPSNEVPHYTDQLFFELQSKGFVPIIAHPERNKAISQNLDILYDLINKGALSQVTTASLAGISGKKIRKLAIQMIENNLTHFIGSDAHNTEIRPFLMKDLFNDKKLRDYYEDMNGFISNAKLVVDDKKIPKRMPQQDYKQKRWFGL

Structure (SMILES): O=[N+]([O-])c1ccc(OP(=O)(O)O)cc1 [p-nitrophenylphosphate]
- p-nitrophenol release, absorbance 405 nm (Cap8C): Cap8C and Lactobacillus rhamnosus Wzb proteins were established to have phosphatase activity using pNPP
- p-nitrophenol release, absorbance 405 nm (Wzb): Lactobacillus rhamnosus Wzb proteins were established to have phosphatase activity using pNPP as substrate

Reference: PMC10816263, “Thermophilic PHP Protein Tyrosine Phosphatases (Cap8C and Wzb) from Mesophilic Bacteria” (International Journal of Molecular Sciences, 2024)
